Data taken from patent publication US4182896A, “Indane derivatives” (Societe Hexachimie, priority 1974, dated 1980).
Where a name gives a salt, the structure may show the parent alone.

What was measured:
[1] = test system: male mice (SPF1, OF1 strain); assay: Analgesic activity: inhibition of pain reactions (abdominal twistings) after intraperitoneal phenylbenzoquinone, oral administration; assay type: in vivo; conditions: for ED50: read-out: ED50 (50% effective dose), analgesic
Method: The products tested are administered orally to batches of 6 male mice (SPF1, OF1 strain) weighing 19-20 g.
1 hour later, 0.3 ml of a 0.02% strength solution of phenylbenzoquinone is injected intraperitoneally into each mouse and, from the 5th to the 10th minute after the latter treatment, the number of pain reactions (abdominal twistings) is counted.
Table V to VIII below give the percentage inhibition of these reactions.

[2] = test system: SPF male rats, OFA strain; assay: Anti-inflammatory activity: paw swelling after subcutaneous plantar injection of carraghenine, oral administration; assay type: in vivo; conditions: for inhibition in vivo at 64 mg/kg / inhibition in vivo at 128 mg/kg / inhibition in vivo at 256 mg/kg / ED50 / inhibition in vivo at 32 mg/kg / inhibition in vivo at 4 mg/kg / inhibition in vivo at 16 mg/kg / inhibition in vivo at 512 mg/kg: Rattus norvegicus, po; for inhibition in vivo at 64 mg/kg / inhibition in vivo at 128 mg/kg / inhibition in vivo at 256 mg/kg / percentage reduction in the inflammation / inhibition in vivo at 32 mg/kg / inhibition in vivo at 4 mg/kg / inhibition in vivo at 16 mg/kg / inhibition in vivo at 512 mg/kg: carraghenine; for inhibition in vivo at 64 mg/kg / inhibition in vivo at 128 mg/kg / inhibition in vivo at 256 mg/kg / inhibition in vivo at 32 mg/kg / inhibition in vivo at 4 mg/kg / inhibition in vivo at 16 mg/kg / inhibition in vivo at 512 mg/kg: read-out: percentage reduction in the inflammation; for ED50 / ED50 (50% effective dose), anti-inflammatory: at the moment of greatest swelling of the controls; for ED50: read-out: ED50 (50% effective dose), anti-inflammatory; for percentage reduction in the inflammation / ED50 (50% effective dose), anti-inflammatory: rat; for ED50 (50% effective dose), anti-inflammatory: oral; for inhibition in vivo at 512 mg/kg: 512 mg/kg oral
Method: Anti-inflammatory activity
The products to be tested are administered orally to batches of 12 SPF male rats, OFA strain, weighing 120-130 g, 2 hours and 30 minutes (1/2 dose each time) before the subcutaneous plantar injection of 0.05 ml of a 1% strength solution of carraghenine. The volume of the back paw which received the phlogogenic agent is measured at regular intervals. The 50% effective dose is calculated at the moment of greatest swelling of the controls.
The results are given in Tables I to IV below, in which the percentage reduction in the inflammation is noted.

[3] = Mus musculus, po, 16 mg/kg oral, read-out: percentage inhibition of pain reactions
[4] = Mus musculus, po, 32 mg/kg oral, read-out: percentage inhibition of pain reactions
[5] = Mus musculus, po, 64 mg/kg oral, read-out: percentage inhibition of pain reactions
[6] = Mus musculus, po, 128 mg/kg oral, read-out: percentage inhibition of pain reactions
[7] = Mus musculus, po, 256 mg/kg oral, read-out: percentage inhibition of pain reactions
[8] = Mus musculus, po, 8 mg/kg oral, read-out: percentage inhibition of pain reactions

Compound | inhibition in vivo at 16 mg/kg [1, 3] [%] | inhibition in vivo at 32 mg/kg [1, 4] [%] | inhibition in vivo at 64 mg/kg [1, 5] [%] | inhibition in vivo at 128 mg/kg [1, 6] [%] | inhibition in vivo at 256 mg/kg [1, 7] [%] | ED50 ([1]; Mus musculus, po) [mg/kg] | inhibition in vivo at 64 mg/kg ([2]; 64 mg/kg oral) [%] | inhibition in vivo at 128 mg/kg ([2]; 128 mg/kg oral) [%] | inhibition in vivo at 256 mg/kg ([2]; 256 mg/kg oral) [%] | ED50 [2] [mg/kg] | inhibition in vivo at 32 mg/kg ([2]; 32 mg/kg oral) [%] | inhibition in vivo at 16 mg/kg ([2]; 16 mg/kg oral) [%] | also measured
CC1CC(C)c2cc(CC(=O)O)ccc21 (stereo not shown) [Example 1, [1,3-Dimethyl-indanyl-(5)]-acetic acid] | 25 | 28 | 67 | 89 | 94 | 43 | 15 | 42 | 88 | 130 |  |  | 
CCC(C(=O)O)c1ccc2c(c1)CC(C(C)C)C2 (stereo not shown) [Example 20, Dimethylaminoethanol salt of 2-ethyl-[2-isopropyl-indanyl-(5)]-acetic acid] |  | 26 |  |  |  | 175 | 25 | 38 | 37 | > 256 | 24 |  | percentage inhibition of pain reactions ([1]; 128 mg/kg oral, mouse): 27%; percentage inhibition of pain reactions ([1]; 256 mg/kg oral, mouse): 74%; percentage inhibition of pain reactions ([1]; 512 mg/kg oral, mouse): 100%; percentage reduction in the inflammation ([2]; 16 mg/kg oral): 16%
CC(C(=O)OC(C)(C)CN(C)C)c1ccc2c(c1)CC(C(C)C)C2.O=C(O)/C=C\C(=O)O (stereo not drawn) [Example 29, Maleate of the dimethylamino-α-dimethyl-ethyl ester of 2-methyl-[2-isopropyl-indanyl-(5)]-acetic acid] |  |  |  |  |  |  |  |  |  |  |  |  | percentage inhibition of pain reactions ([1]; 16 mg/kg oral, mouse): 8%; percentage inhibition of pain reactions ([1]; 32 mg/kg oral, mouse): 43%; percentage inhibition of pain reactions ([1]; 64 mg/kg oral, mouse): 57%; percentage inhibition of pain reactions ([1]; 128 mg/kg oral, mouse): 86%; percentage inhibition of pain reactions ([1]; 256 mg/kg oral, mouse): 96%; percentage reduction in the inflammation ([2]; 4 mg/kg oral): 12%; percentage reduction in the inflammation ([2]; 16 mg/kg oral): 35%; percentage reduction in the inflammation ([2]; 64 mg/kg oral): 45%; percentage reduction in the inflammation ([2]; 128 mg/kg oral): 72%; percentage reduction in the inflammation ([2]; 256 mg/kg oral): 65%; ED50 (50% effective dose), anti-inflammatory [2]: 55 mg/kg
CC(C(=O)OCCN1CCCCC1)c1ccc2c(c1)CC(C(C)C)C2 (stereo not shown) [Example 30, Oxalate of the piperidine-ethyl ester of 2-methyl-[2-isopropyl-indanyl-(5)]-acetic acid] | 11 | 32 | 73 | 99 |  | 37 | 55 | 47 | 52 |  |  | 32 | inhibition in vivo at 4 mg/kg ([2]; 4 mg/kg oral): 10%
CC(C)C1Cc2ccc(CCO)cc2C1 (stereo not drawn) [Example 37, β-[2-Isopropyl-indanyl-(5)]-ethanol] | 0 | 40 | 55 | 62 | 81 | 60 | 21 | 41 | 30 | > 256 | 1 | 0 | 
CC(C(=O)OCCN1CCOCC1)c1ccc2c(c1)CC(C1CCCCC1)C2 (stereo not shown) [Example 25, Hydrochloride of the morpholino-ethyl ester of 2-methyl-[2-cyclohexyl-indanyl-(5)]-acetic acid] |  | 19 | 50 | 64 |  | 80 | 7 | 12 | 10 | > 256 | 28 | 26 | 
CCC1Cc2ccc(C(C)C(=O)OCCN3CCOCC3)cc2C1 (stereo not shown) [Example 26, Oxalate of the morpholino-ethyl ester of 2-methyl-[2-ethyl-indanyl-(5)]-acetic acid] | 52 | 69 | 94 |  |  | 18 | 54 | 68 | 70 | 40 | 47 | 38 | inhibition in vivo at 8 mg/kg [1, 8]: 17%
CC(C(=O)O)c1ccc2c(c1)CC(C1CCCCC1)C2 (stereo not shown) [Example 14, 2-Methyl-[2-cyclohexyl-indanyl-(5)]-acetic acid] |  | 20 | 35 | 52 | 62 | 110 | 16 | 17 | 31 | > 512 | 5 | 11 | inhibition in vivo at 512 mg/kg ([1]; Mus musculus, po, 512 mg/kg oral, read-out: percentage inhibition of pain reactions): 93%; inhibition in vivo at 512 mg/kg [2]: 34%
CC(C(=O)O)c1ccc2c(c1)CC(C(C)C)C2 (stereo not shown) [Example 19, Dimethylaminoethanol salt of 2-methyl-[2-isopropyl-indanyl-(5)]-acetic acid] |  |  | 96 |  |  |  |  |  | 82 |  |  |  | percentage inhibition of pain reactions ([1]; 8 mg/kg oral, mouse): 31%; percentage inhibition of pain reactions ([1]; 16 mg/kg oral, mouse): 54%; percentage inhibition of pain reactions ([1]; 32 mg/kg oral, mouse): 82%; inhibition in vivo at 4 mg/kg ([1]; Mus musculus, po, 4 mg/kg oral, read-out: percentage inhibition of pain reactions): 5%; ED50 (50% effective dose), analgesic ([1]; oral, mouse): 14 mg/kg; percentage reduction in the inflammation ([2]; 8 mg/kg oral): 20%; percentage reduction in the inflammation ([2]; 16 mg/kg oral): 44%; percentage reduction in the inflammation ([2]; 32 mg/kg oral): 48%; percentage reduction in the inflammation ([2]; 64 mg/kg oral): 63%; percentage reduction in the inflammation ([2]; 128 mg/kg oral): 67%; inhibition in vivo at 4 mg/kg ([2]; 4 mg/kg oral): 25%; ED50 (50% effective dose), anti-inflammatory [2]: 30 mg/kg
CC1Cc2ccc(C(C)C(=O)OCCN3CCOCC3)cc2C1 (stereo not shown) [Example 22, Oxalate of the morpholino-ethyl ester of 2-methyl-[2-methyl-indanyl-(5)]-acetic acid] | 13 | 19 | 73 | 86 | 98 | 45 | 12 | 11 | 34 | 480 | 7 | 17 | inhibition in vivo at 512 mg/kg [2]: 52%
CC1(C)Cc2ccc(CC(=O)OCCN3CCOCC3)cc2C1 [Example 23, Hydrochloride of the morpholino-ethyl ester of [2,2-dimethyl-indanyl-(5)]-acetic acid] | 20 | 36 | 82 | 45 | 45 |  | 30 | 50 | 55 | 140 | 9 |  | inhibition in vivo at 8 mg/kg [1, 8]: 1%; inhibition in vivo at 512 mg/kg [2]: 90%
CC1CC(C)c2cc(CC(=O)O)c(Cl)cc21 (stereo not shown) [Example 3, [6-Chloro-1,3-dimethyl-indanyl-(5)]-acetic acid] | 33 | 51 | 66 | 66 | 94 | 33 | 24 | 36 | 56 | 200 |  |  | 
CC(C(=O)O)c1ccc2c(c1)CC(C)(C)C2 (stereo not shown) [Example 16, 2-Methyl-[2,2-dimethyl-indanyl-(5)]-acetic acid] | 30 | 77 | 96 |  |  | 19 | 37 | 61 | 94 | 73 | 20 | 4 | inhibition in vivo at 8 mg/kg [1, 8]: 13%
O=C(O)Cc1ccc2c(c1)CCC2C1CCCCC1 (stereo not shown) [Example 5, [1-Cyclohexyl-indanyl-(5)]-acetic acid] |  |  | 32 |  | 58 | ~150 |  |  |  |  |  |  | 
